Test results taken from patent US9555077B2 (UNIVERSITY OF MIYAZAKI, priority 2011, dated 2017).

Columns and labels:
[1] = tested on: rats with the normal body temperature; experiment: Hypothermic effect of desacyl ghrelin in rats with normal body temperature (back/tail surface temperature by thermography); type: in vivo, rat; conditions: male Wistar rats
Experimental: Male Wistar rats (9 to 10 weeks old) were used as experimental animals.
The administration to the animals was performed by a single dose of intraperitoneal or intracerebroventricular injection. The dose was 3 nmol/rat for intraperitoneal administration and 0.5 nmol/rat for intracerebroventricular administration, regardless of the weight of the animals. The weight of the rats varied from 350.2 to 375.8 g.
The back or tail surface temperature of the animals was measured for 1 hour at intervals of 1 minute by thermography using FLIR SC620 (software name: FLIR Rsearch IR) made by FLIR Systems Inc. The body temperature values measured by thermography are shown as increase and decrease from the zero reference point obtained by measurement of the body temperature for 10 minutes prior to the intraperitoneal injection.
The laboratory was maintained at room temperature and the rats were carried thereinto. […] As another control, 200 μl/rat of physiological saline was intraperitoneally injected to the rats.
As a control, 0.5 nmol/rat of the rat-derived ghrelin was intracerebroventricularly administered the rats. As another control, 200 μl/rat of physiological saline was intracerebroventricularly administered to the rats.
The back and tail surface temperatures were measured by thermography in this Example.

rats with hyperthermia = experiment: Suppressive effect of desacyl ghrelin against body temperature increase in rats with hyperthermia (rectal temperature, survival); type: in vivo, rat
Experimental: The rectal temperature was measured with a small animal body temperature controller ATC-101B made by Unique Medical Co., Ltd.
The life or death of each animal was determined in a comprehensive manner based on changes in the heart rate, respiratory rate, and body temperature, the amount of activity, the response to a physical stimulation, etc.
This experiment was performed in the same manner as in Example 1 unless otherwise stated.
While maintaining the air temperature in the laboratory at 33 to 35° C., the humidity was increased from 30% (at the beginning of the experiment) to 75% (at the end of the experiment), and thus the laboratory conditions were gradually changed to high temperature and high humidity conditions. The rats were then carried into the laboratory. The rats were housed in a plastic cage in groups of three each. […] As a control, 200 μl/rat of physiological saline was intraperitoneally injected to the rats.
At the elapsed time of 110 minutes (80 minutes after the intraperitoneal injection), the rats were transferred from the laboratory to room temperature.
At the elapsed time of 130 minutes (100 minutes after the intraperitoneal injection), the life or death of each rat was determined by visual observation and palpation.
The body temperature was measured at the rectum in this Example.

[2] = tested on: secretion of growth hormone (GH) from the pituitary gland; conditions: Broglio et al. 2004; cited from earlier work

For desacyl ghrelin, the “hypothermic effect in back surface temperature compared with ghrelin-administered group” value ([1]; 0.5 nmol/rat intracerebroventricular, 10 to 30 minutes after injection (FIG. 3)) was “higher hypothermic effect”, the “heat dissipation effect compared with ghrelin” value ([1]; 3 nmol/rat intraperitoneal, tail surface temperature (FIG. 2)) was “more excellent than that of ghrelin” and the tail surface temperature ([1]; 3 nmol/rat intraperitoneal, thermography (FIG. 2)) was “increased”. For the same substance, the “back surface temperature, lower than that of the physiological-saline administered group” value ([1]; room temperature, 3 nmol/rat intraperitoneal, 5 to 60 minutes after injection, thermography (FIG. 1)) was 0.3 to 0.8 °C, the “survival (life or death of each rat)” value (rats with hyperthermia; elapsed time 130 minutes (100 minutes after 10 nmol/rat i.p.), three rats per group, two of three control rats died) was “all the three rats in the desacyl ghrelin-administered group survived” and the “Body temperature of rats” value (rats with hyperthermia; rectal, elapsed time 0 minutes at 33 to 35° C. (before the injection)) was 36.1 ± 0.1 °C. The “body temperature, lower than that of the physiological saline-administered group” value (rats with hyperthermia; rectal, elapsed time 50 to 110 minutes (20 to 80 minutes after 10 nmol/rat i.p.), p<0.05 or 0.01) was 0.3 to 1.2 °C, the “Body temperature of rats” value (rats with hyperthermia; rectal, elapsed time 10 minutes (before the injection)) was 37.0 ± 0.1 °C and the “Body temperature of rats” value (rats with hyperthermia; rectal, elapsed time 20 minutes (before the injection)) was 38.2 ± 0.2 °C. The “Body temperature of rats” value (rats with hyperthermia; rectal, elapsed time 30 minutes (time of intraperitoneal injection, 10 nmol/rat)) was 38.8 ± 0.2 °C, the “Body temperature of rats” value (rats with hyperthermia; rectal, elapsed time 40 minutes (10 minutes after 10 nmol/rat i.p.)) was 39.2 ± 0.2 °C and the “Body temperature of rats” value (rats with hyperthermia; rectal, elapsed time 50 minutes (20 minutes after 10 nmol/rat i.p.)) was 39.7 ± 0.0 °C. The “Body temperature of rats” value (rats with hyperthermia; rectal, elapsed time 60 minutes (30 minutes after 10 nmol/rat i.p.)) was 39.9 ± 0.1 °C, the “Body temperature of rats” value (rats with hyperthermia; rectal, elapsed time 70 minutes (40 minutes after 10 nmol/rat i.p.)) was 40.0 ± 0.3 °C and the “Body temperature of rats” value (rats with hyperthermia; rectal, elapsed time 80 minutes (50 minutes after 10 nmol/rat i.p.)) was 40.2 ± 0.2 °C. For the same substance, the “Body temperature of rats” value (rats with hyperthermia; rectal, elapsed time 90 minutes (60 minutes after 10 nmol/rat i.p.)) was 40.0 ± 0.2 °C, the “Body temperature of rats” value (rats with hyperthermia; rectal, elapsed time 100 minutes (70 minutes after 10 nmol/rat i.p.)) was 40.1 ± 0.2 °C and the “Body temperature of rats” value (rats with hyperthermia; rectal, elapsed time 110 minutes (80 minutes after 10 nmol/rat i.p.)) was 40.3 ± 0.1 °C. The “activity to increase the secretion of growth hormone (GH) from the pituitary gland” value [2] was “almost no activity”.
